# How the values were obtained:
# Assay type in all cases: cell-based, human
# [1] = test system: T2-cells (HLA-A*02-positive, TAP deficient); test: 51Cr-release CTL-assay against peptide-pulsed T2-cells; conditions: CTL induced with SEQ ID No. 1 (FIG. 2a) or SEQ ID No. 2 (FIG. 2c); targets pulsed 50 μg/ml 2 hours
# Procedure: (§1) For CTL induction, the DC obtained in step 2.1 (5×10^5) were pulsed with the peptides obtained in step 2.2 with SEQ ID No. 1 or SEQ ID No. 2, each with 50 μg/ml for 2 hours, washed and incubated with 2.5×10^6 autologous PBMNC in RP10 medium.
# (§2) After 7 days of culture, cells were restimulated with autologous PBMNC pulsed with peptides. In doing so, 1 ng/ml human recombinant Interleukin IL-2 (R&D Systems) was added on days 1, 3 and 5. The cytolytic activity of thereby induced CTL was analyzed on day 5 after the last restimulation in a standard ^51Cr-release-assay (see below, under 2.4: CTL-assay).
# In the CTL-assays, tumor cells, peptide-pulsed cells of different cell lines and autologous DC were used as target cells. Peptide-pulsed cells were pulsed with 50 μg/ml peptide (SEQ ID No. 1 or SEQ ID No. 2) for 2 hours. All target cells were labeled with [^51Cr] sodium chromate in RP10 (RPMI 1640, supplemented with 10% heat inactivated calf serum and antibiotics) for 1 hour at 37° C. Subsequently, 10^4 cells/well were transferred to a 96-well round bottomed plate. Varying numbers of CTL were added to give a final volume of 200 μl and incubated for 4 hours at 37° C. At the end of the assays, supernatants (50 μl/well) were harvested and counted in a beta-plate counter. […] The spontaneous and maximal release were determined in the presence of either medium or 2% Triton X-100, respectively. […]
# dendritic cells (DC) = test: 51Cr-release CTL-assay against peptide-pulsed DC; conditions: for lysis of DC pulsed with the peptide: CTL induced with SEQ ID No. 1 (FIG. 2b) or SEQ ID No. 2 (FIG. 2d), targets pulsed 50 μg/ml 2 hours
# Procedure: Peripheral blood mononuclear cells (PBMNC) were isolated by Ficoll/Paque—(Biochrom, Berlin, Germany)—density gradients centrifugation of heparinized blood obtained from buffy coat preparations of healthy volunteers from the blood bank of the University of Tübingen. Cells were seeded (1×10^7 cells/3 ml per well) into 6-well plates (Falcon, Heidelberg, Germany) in RP10 media (RPMI 1640, supplied with 10% heat-inactivated fetal calf serum and with antibiotics). After 2 hours of incubation at 37° C. and 5% CO2, non-adherent cells were removed and the adherent blood monocytes were cultured in RP10 medium supplemented with the following cytokins: human recombinant GM-CSF (granulocyte makrophage colony stimulating factor; Leukomax, Novartis; 100 ng/ml), Interleukin IL-4 (R&D Systems, Wiesbaden, Germany, 1000 IU/ml) and TNF-α (tumor necrosis factor α) (R&D Systems, Wiesbaden, Germany, 10 ng/ml).
# as §1, §2
# In the CTL-assays, tumor cells, peptide-pulsed cells of different cell lines and autologous DC were used as target cells. Peptide-pulsed cells were pulsed with 50 μg/ml peptide (SEQ ID No. 1 or SEQ ID No. 2) for 2 hours. […] At the end of the assays, supernatants (50 μl/well) were harvested and counted in a beta-plate counter. […] The spontaneous and maximal release were determined in the presence of either medium or 2% Triton X-100, respectively. […]
# [2] = test system: A 498 (renal cell carcinoma); test: 51Cr-release CTL-assay against tumor cell line A 498
# Procedure: (§3) In the CTL-assays, tumor cells, peptide-pulsed cells of different cell lines and autologous DC were used as target cells. Peptide-pulsed cells were pulsed with 50 μg/ml peptide (SEQ ID No. 1 or SEQ ID No. 2) for 2 hours. All target cells were labeled with [^51Cr] sodium chromate in RP10 (RPMI 1640, supplemented with 10% heat inactivated calf serum and antibiotics) for 1 hour at 37° C. Subsequently, 10^4 cells/well were transferred to a 96-well round bottomed plate. Varying numbers of CTL were added to give a final volume of 200 μl and incubated for 4 hours at 37° C. At the end of the assays, supernatants (50 μl/well) were harvested and counted in a beta-plate counter. […] The spontaneous and maximal release were determined in the presence of either medium or 2% Triton X-100, respectively.
# (§4) Next, it was tested, in a standard tumor ^51Cr-release-assays again, whether CTL specific for the c-Met-peptide with SEQ ID No. 1 or for adipophilin-peptide with SEQ ID No. 2 recognized and lysed tumor cells, which endogenously express the c-Met-protooncogene or adipophilin. […]
# [3] = test system: MeI 1479 (Malignant melanoma); test: 51Cr-release CTL-assay against tumor cell line MeI 1479; conditions: cell line MEL 1479 / MeI 1479, FIG. 3c / 3f
# Procedure: as §3, §4
# MCF-7 (breast cancer) = test: 51Cr-release CTL-assay against tumor cell line MCF-7; conditions: cell line MCF-7, FIG. 3d / 3e
# Procedure: as §3, §4
# U 266 (multiple myeloma) = test: 51Cr-release CTL-assay against tumor cell line U 266; conditions: cell line U 266, FIG. 3d / 3e
# Procedure: as §3, §4
# 51Cr-labeled A 498 = test: Lysis-inhibition assay with cold peptide-pulsed T2 inhibitor cells, target A 498
# Procedure: To further verify the antigen-specificity and the MHC-restriction of the in-vitro-induced CTL, inhibition assays with non-^51Cr-labeled (“cold”) inhibitor cell lines were performed.
# In doing so, the ability of peptide-pulsed cell lines was analyzed to inhibit the lysis of tumor cells (competition assay). For this purpose, an excess of inhibitor (that is an excess of unlabeled pulsed cells) was used. The ratio of inhibitor (peptide-pulsed cells) to target (tumor cells) was 20:1. When inhibitor cell lines were lysed, no ^51Cr was released, since the inhibitor cell lines were unlabeled.
# Cell line T2 (HLA-A*02; TAP-deficient; see under 2.5.a) was used as inhibitor. Previous to the assay, this cell line T2 was pulsed with the relevant peptides (SEQ ID NOS:1 or 2) or an irrelevant control peptide (Survivin (=Sv), SEQ ID NO:80), respectively.
# In FIGS. 4a and 4b, lysis of the ^51Cr-labeled cell lines U 266 and A 498 was tested without inhibitor cell line (see the curve with black filled boxes); lysis with inhibitor cell line T2, pulsed with an irrelevant peptide (Survivin; SEQ ID NO:80; negative control, curves with the filled triangles); and lyses with the inhibitor cell line T2 pulsed with the c-Met-peptide with SEQ ID NO:1 (curves with the empty rhombus).
# With these inhibition assays, the cells were incubated with 10 μg/ml antibody previous to seeding on the 96-well-plates for 30 min.
Sequence,lysis of T2-cells pulsed with the peptide [1],lysis of DC pulsed with the peptide (dendritic cells (DC)),"lysis of autologous DC pulsed with the peptide by CTL induced with the peptide (dendritic cells (DC); autologous setting, FIG. 5b)","lysis of tumor cells by CTL induced with the peptide ([2]; cell line A 494, FIG. 3e)",lysis of tumor cells by CTL induced with the peptide [3],lysis of tumor cells by CTL induced with the peptide (MCF-7 (breast cancer)),lysis of tumor cells by CTL induced with the peptide (U 266 (multiple myeloma)),"inhibition of CTL-induced lysis of tumor cell line by T2 cells pulsed with the peptide (51Cr-labeled A 498; adipophilin-peptide-induced CTL, FIG. 4c)","lysis of tumor cells by CTL induced with the peptide ([2]; cell line A 498, FIG. 3b)","lysis of 51Cr-labeled tumor cells in presence of unlabeled T2 inhibitor cells pulsed with the peptide (51Cr-labeled A 498; c-Met-peptide-induced CTL, inhibitor:target 20:1, FIGS. 4a and 4b)"
"SVASTITGV (listed as Homo sapiens) [SEQ ID No. 2, HLA-A*02 ligand, adipose differentiation-related protein 129-137]",lysed,lysed,lysed,efficiently lyse,efficiently lyse,efficiently lyse,efficiently lyse,able to inhibit,,
"YVDPVITSI (listed as Homo sapiens) [SEQ ID No. 1, HLA-A*02 ligand, met proto-oncogen 654-662]",lysed,lysed,,,efficiently lyse,efficiently lyse,efficiently lyse,,efficiently lyse,not lysed

# Source: patent publication US8536304B2, “Tumour-associated peptides that bind to MHC molecules” (Immatics Biotechnologies GmbH, priority 2002, dated 2013)
